Source: patent US20220152033A1, “COMPOSITIONS AND METHODS FOR DEEP DERMAL DRUG DELIVERY” (ARCUTIS BIOTHERAPEUTICS, INC., priority 2020, published 2022)

Key:
[1] = Particle size distribution of SHR0302 by laser diffraction (Malvern, Hydro MV); format: physicochemical; conditions: SHR0302 used in Example 1; wet dispersion in ethyl acetate; FIG. 1
Excerpt: In the pharmaceutical compositions of the present invention, the active ingredient is present as small particles. Particle size of the drug can be assessed using laser diffraction methods. Laser diffraction is recognized by standards and guidance agencies including ISO and ASTM and is widely used to determine particle size distributions. In conducting the assessment, the sample is passed through a laser beam, which results in laser light scattered at a range of angles. Detectors placed at fixed angles measure the intensity of light scattered at that position. A mathematical model is then applied to generate a particle size distribution. The particle size values reported herein are determined by using a liquid or wet dispersion method.
In particle size determinations, the median value is defined as the value where half of the population resides above this point, and half resides below this point. For particle size distributions the median is called the D50. The D50 is the size that splits the distribution with half above and half below this diameter. The distribution width may also be characterized by citing one, two or three values on the x-axis, typically some combination of the D10, D50, and D90. The D50, the median, has been defined above as the diameter where half of the population lies below this value. Similarly, 90 percent of the distribution lies below the D90, and 10 percent of the population lies below the D10.
A pharmaceutical composition comprising 3% SHR0302 suspended in dimethicone was prepared. The primary particle size distribution of the SHR0302 is characterized by a D10 value of less than about 0.25 μm; a D50 value of less than about 0.7 μm; and a D90 value of less than about 5 μm. The pharmaceutical composition was a transparent solution due to the particles being too small to scatter visible light. A Malvern Metasizer Model 3000 using the Hydro MV dispersion unit was used to determine the particle size distribution profile of SHR0302. […]

JAK1 = JAK1 (Homo sapiens, UniProt P23458); conditions: cited from earlier work
women with acne = conditions: orally administered; cited from earlier work

Sequence of JAK1 (P23458 whole entry, species assumed): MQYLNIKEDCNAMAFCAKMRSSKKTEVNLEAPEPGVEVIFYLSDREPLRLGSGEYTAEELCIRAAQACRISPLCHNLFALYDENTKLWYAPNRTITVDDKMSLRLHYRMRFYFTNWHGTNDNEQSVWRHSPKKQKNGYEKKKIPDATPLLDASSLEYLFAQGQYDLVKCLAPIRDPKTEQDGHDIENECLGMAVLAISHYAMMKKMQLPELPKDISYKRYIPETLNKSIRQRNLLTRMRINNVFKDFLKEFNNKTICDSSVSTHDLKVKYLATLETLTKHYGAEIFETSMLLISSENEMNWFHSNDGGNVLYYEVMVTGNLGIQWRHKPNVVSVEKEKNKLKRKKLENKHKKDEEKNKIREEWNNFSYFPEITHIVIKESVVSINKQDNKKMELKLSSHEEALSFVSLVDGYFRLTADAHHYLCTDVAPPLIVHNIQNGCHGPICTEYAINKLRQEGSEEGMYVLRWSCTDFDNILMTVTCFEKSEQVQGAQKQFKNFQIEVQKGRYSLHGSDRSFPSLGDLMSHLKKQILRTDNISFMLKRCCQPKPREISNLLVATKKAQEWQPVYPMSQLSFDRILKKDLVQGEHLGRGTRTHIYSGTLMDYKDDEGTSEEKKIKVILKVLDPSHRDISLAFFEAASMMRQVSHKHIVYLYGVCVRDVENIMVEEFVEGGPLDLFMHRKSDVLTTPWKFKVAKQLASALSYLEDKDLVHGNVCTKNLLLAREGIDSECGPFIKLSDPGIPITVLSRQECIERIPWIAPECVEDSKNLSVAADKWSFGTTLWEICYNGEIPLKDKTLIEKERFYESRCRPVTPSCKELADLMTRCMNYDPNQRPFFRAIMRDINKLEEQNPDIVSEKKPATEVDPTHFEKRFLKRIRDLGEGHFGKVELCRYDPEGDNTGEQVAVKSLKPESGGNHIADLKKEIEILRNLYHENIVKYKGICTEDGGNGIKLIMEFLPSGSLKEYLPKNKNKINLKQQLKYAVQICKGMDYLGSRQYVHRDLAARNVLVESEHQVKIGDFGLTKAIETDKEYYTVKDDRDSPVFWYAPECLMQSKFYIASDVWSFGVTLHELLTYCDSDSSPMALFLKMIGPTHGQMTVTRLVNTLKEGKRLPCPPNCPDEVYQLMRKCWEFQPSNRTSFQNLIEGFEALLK

Row | Compound | primary particle size distribution D10 value [1] | primary particle size distribution D50 value [1] | primary particle size distribution D90 value [1] | selectivity for JAK1 over JAK2 (JAK1) | efficacy in the treatment of women with acne (women with acne)
1 | COc1nsc(NC(=O)N2C[C@H]3C[C@H](N(C)c4ncnc5[nH]ccc45)C[C@H]3C2)n1 [SHR0302, (3aR,5S,6aS)—N-(3-methoxyl-1,2,4-thiadiazol-5-yl)-5-(methyl(7H-pyrrolo[2,3-d]pyrimidin-4-yl)amino)hexahydrocyclopenta[c]pyrrole-2(1H)-carboxamide] | less than 0.25 μm | less than 0.7 μm | less than 5 μm | high selectively for JAK1 over JAK2 | 
2 | CC(=O)S[C@@H]1CC2=CC(=O)CC[C@]2(C)[C@H]2CC[C@@]3(C)[C@@H](CC[C@@]34CCC(=O)O4)[C@H]12 [spironolactone, 17-hydroxy-7α-mercapto-3-oxo-17α-pregn-4-ene-21-carboxylic acid γ-lactone acetate] |  |  |  |  | efficacious
